Experimental data as given in publication PMC7217150, “Synthesis, Modification, and Biological Evaluation of a Library of Novel Water‐Soluble Thiopyridone‐Based Organometallic Complexes and Their Unexpected (Biological) Behavior” (Chemistry (Weinheim an Der Bergstrasse, Germany), 2020).
Read-outs that look alike come from different tables or passages of the source.

Legend:
A549 [1] = experiment: MTT cytotoxicity assay, monolayer culture; format: cell-based, human; settings: exposure time 96 h, means ± SDs
Text: (§1) A549 (non‐small cell lung carcinoma), SW480 and HCT‐116 (both colon carcinoma) were kindly provided by Brigitte Marian, Institute of Cancer Research, Department of Medicine I, Medical University of Vienna, Austria. The cell line CH1/PA‐1 (ovarian teratocarcinoma) was kindly provided by Lloyd R. Kelland (CRC Centre for Cancer Therapeutics, Institute of Cancer Research, Sutton, UK). All cell culture media (including supplements) and reagents were obtained from Sigma–Aldrich, and all plasticware from StarLab, unless indicated otherwise.

CH1/PA‐1 [2] = experiment: MTT cytotoxicity assay, monolayer culture; format: cell-based, human; settings: CH1/PA‐1, MTT assay, exposure time 96 h, means ± SDs
Text: as §1

SW480 [3] = experiment: MTT cytotoxicity assay, monolayer culture; format: cell-based, human
Text: as §1

[4] = pH 7.2
Experimental: Stock solutions containing the desired complex in DMSO (5 mM) were diluted with phosphate buffer (pH 7.2) to a final concentration of […] compound in 1 % DMSO/20 mM buffer and directly analyzed by four different isocratic UHPLC runs (Δ=5 %). The lipophilicity parameters logkw and lipophilicity indices φ0 were calculated according to literature.7, 37

A549 [5] = settings: A549 multicellular spheroids, 96 h drug exposure
Experimental: (§2) A549, CH1/PA‐1 and SW480 cells were grown in MEM supplemented with 10 % fetal calf serum (FCS; from Biowest), 1 mM sodium pyruvate, 4 mM L‐glutamine and 1 % v/v nonessential amino acids (from 100×solution) and L‐glutamine. HCT‐116 cells were maintained in McCoy's 5a medium supplemented with 10 % FCS and L‐glutamine. Adherent monolayer cultures were grown in 75 cm^2 flasks. For spheroid culture, A549, CH1/PA‐1 and HCT‐116 cells were harvested from culture flasks by trypsinization, resuspended in their respective supplemented medium and seeded in ultra‐low attachment round‐bottom 96‐well plates (Corning Costar) at a density of 500 viable cells per well. Plates were incubated for 96 h to allow spheroid formation prior to use for the tests. All cultures were incubated in a humidified incubator at 37 °C with 5 % CO2.
(§3) Cytotoxicity in multicellular spheroids was determined by the fluorimetric resazurin assay. […] After incubation for 96 h, 20 μL of a 440 μM resazurin sodium salt solution in PBS were added to each well, and the plates were incubated for further 16 h. Fluorescence was measured with a Synergy HT reader (BioTek) with an excitation wavelength of 530 nm and emission wavelength of 590 nm. For both assays, at least three independent experiments (or two in case of poor activity) were performed, each with triplicates per concentration level, and the 50 % inhibitory concentrations (IC50) relative to untreated controls were interpolated from concentration‐effect curves.

CH1/PA‐1 [6] = settings: CH1/PA‐1 multicellular spheroids, 96 h drug exposure
Experimental: as §2, §3

HCT‐116 = HCT‐116 multicellular spheroids, 96 h drug exposure
Experimental: as §2, §3

CH1/PA‐1 [7] = experiment: Cell cycle distribution, flow cytometry with propidium iodide; format: cell-based, human; settings: for Cell cycle distribution G1, % / Cell cycle distribution G2/M, % / Cell cycle distribution S, %: 24 h, mean ± SD; for Relative change in cell cycle distribution G1, % / Relative change in cell cycle distribution G2/M, % / Relative change in cell cycle distribution S, %: difference to untreated control
Experimental: (§4) The influence of two ligands, as well as seven complexes on cell cycle distribution was tested in two of the cancer cell lines (SW480, CH1/PA‐1) by means of flow cytometry. The cell cycle distribution (G1, S, G2/M phase in %; Table S37) was investigated upon DNA staining with propidium iodide.
(§5) CH1/PA‐1 and SW480 cells were harvested by trypsinization, 8×10^4 and 1.2×10^5 cells per well were seeded into 12‐well plates, respectively. The cells were allowed to attach and resume proliferation for 24 h after the seeding. […] After continuous exposure for 24 h at 37 °C and under 5 % CO2, the cells were harvested by trypsinization and centrifuged at 300 g for 3 min. The cells were washed with PBS (1 mL) and resuspended in propidium iodine (PI) containing HSF buffer (600 μL; 0.1 % Triton X‐100, 0.1 % sodium citrate, 50 μg mL^−1 PI in PBS). After incubation overnight at 4 °C in the dark, 5×10^3 cells were measured by flow cytometry with a Millipore Guava easyCyte 8HT instrument (Luminex, USA). Data were evaluated by means of FlowJo software (Tree Star) using Watson Pragmatic algorithms.60 The fitting of the curve was chosen to keep the root mean square error between 1.0 and 2.0, alongside with good fitting visual model.

SW480 [8] = experiment: as above; format: cell-based, human; settings: for Cell cycle distribution G1, % / Cell cycle distribution G2/M, % / Cell cycle distribution S, %: 24 h, mean ± SD; for Relative change in cell cycle distribution G1, % / Relative change in cell cycle distribution G2/M, % / Relative change in cell cycle distribution S, %: difference to untreated control
Experimental: as §4, §5

CC1=C2[O][Ir+]([Cl])[S]=C2C=CN1C.Cc1c(C)c(C)[c-](C)c1C [Compound 6 a, Chlorido[1,2‐dimethyl‐3‐oxo‐κO‐pyridine‐4(1H)‐thionato‐κS](η^5‐1,2,3,4,5‐pentamethylcyclopentadienyl)iridium(III)]
IC50 (A549 [1]): 63 ± 6 µM | IC50 (CH1/PA‐1 [2]): 7 ± 1.6 µM | IC50 (SW480 [3]; SW480, MTT assay, exposure time 96 h, means ± SDs): 4.2 ± 0.2 µM | IC50 (SW480 [3]; SW480, as listed in Table 3): 4.18 ± 0.19 µM | φ0 (chromatographic lipophilicity index) [4]: 5.75 | IC50 (A549 [5]): 270 ± 17 µM | IC50 (CH1/PA‐1 [6]): 131 ± 14 µM | IC50 (HCT‐116): 138 ± 6 µM | Cell cycle distribution G1, % (CH1/PA‐1 [7]; CH1/PA-1, 10 µM): 29 ± 3% | Cell cycle distribution G2/M, % (CH1/PA‐1 [7]; CH1/PA-1, 10 µM): 26 ± 4% | Cell cycle distribution S, % (CH1/PA‐1 [7]; CH1/PA-1, 10 µM): 45 ± 8% | Relative change in cell cycle distribution G1, % (CH1/PA‐1 [7]; CH1/PA-1, 10 µM): -11% | Relative change in cell cycle distribution G2/M, % (CH1/PA‐1 [7]; CH1/PA-1, 10 µM): 2% | Relative change in cell cycle distribution S, % (CH1/PA‐1 [7]; CH1/PA-1, 10 µM): 9% | Cell cycle distribution G1, % (CH1/PA‐1 [7]; CH1/PA-1, 20 µM): 33 ± 4% | Cell cycle distribution G2/M, % (CH1/PA‐1 [7]; CH1/PA-1, 20 µM): 26 ± 9% | Cell cycle distribution S, % (CH1/PA‐1 [7]; CH1/PA-1, 20 µM): 41 ± 10% | Relative change in cell cycle distribution G1, % (CH1/PA‐1 [7]; CH1/PA-1, 20 µM): -7% | Relative change in cell cycle distribution G2/M, % (CH1/PA‐1 [7]; CH1/PA-1, 20 µM): 2% | Relative change in cell cycle distribution S, % (CH1/PA‐1 [7]; CH1/PA-1, 20 µM): 5% | Cell cycle distribution G1, % (CH1/PA‐1 [7]; CH1/PA-1, 40 µM): 28 ± 6% | Cell cycle distribution G2/M, % (CH1/PA‐1 [7]; CH1/PA-1, 40 µM): 26 ± 4% | Cell cycle distribution S, % (CH1/PA‐1 [7]; CH1/PA-1, 40 µM): 45 ± 5% | Relative change in cell cycle distribution G1, % (CH1/PA‐1 [7]; CH1/PA-1, 40 µM): -12% | Relative change in cell cycle distribution G2/M, % (CH1/PA‐1 [7]; CH1/PA-1, 40 µM): 2% | Relative change in cell cycle distribution S, % (CH1/PA‐1 [7]; CH1/PA-1, 40 µM): 9% | Cell cycle distribution G1, % (SW480 [8]; SW480, 2.5 µM): 48 ± 2% | Cell cycle distribution G2/M, % (SW480 [8]; SW480, 2.5 µM): 19 ± 3% | Cell cycle distribution S, % (SW480 [8]; SW480, 2.5 µM): 32 ± 1% | Relative change in cell cycle distribution G1, % (SW480 [8]; SW480, 2.5 µM): 0% | Relative change in cell cycle distribution G2/M, % (SW480 [8]; SW480, 2.5 µM): 0% | Relative change in cell cycle distribution S, % (SW480 [8]; SW480, 2.5 µM): -1% | Cell cycle distribution G1, % (SW480 [8]; SW480, 5 µM): 41 ± 4% | Cell cycle distribution G2/M, % (SW480 [8]; SW480, 5 µM): 26 ± 5% | Cell cycle distribution S, % (SW480 [8]; SW480, 5 µM): 33 ± 9% | Relative change in cell cycle distribution G1, % (SW480 [8]; SW480, 5 µM): -7% | Relative change in cell cycle distribution G2/M, % (SW480 [8]; SW480, 5 µM): 7% | Relative change in cell cycle distribution S, % (SW480 [8]; SW480, 5 µM): 0% | Cell cycle distribution G1, % (SW480 [8]; SW480, 10 µM): 42 ± 4% | Cell cycle distribution G2/M, % (SW480 [8]; SW480, 10 µM): 17 ± 3% | Cell cycle distribution S, % (SW480 [8]; SW480, 10 µM): 42 ± 3% | Relative change in cell cycle distribution G1, % (SW480 [8]; SW480, 10 µM): -6% | Relative change in cell cycle distribution G2/M, % (SW480 [8]; SW480, 10 µM): -2% | Relative change in cell cycle distribution S, % (SW480 [8]; SW480, 10 µM): 9% | cellular concentration relative to 3 a (SW480 cells): about 47 times | Cellular accumulation (SW480 cells; ICP‐MS, 2 h exposure, 50 μM): 986±152 fg/cell
